Tested on: Microcystis aeruginosa
Test: Inhibition of algal growth, detection of Chlorophyll-a content by spectrometry (absorbance at 665 nm after ethanol extraction)
Assay type: cell-based
Description: In the following embodiment, three specimens, chitosan, glucosamine, and the combination of both, were used as inhibitors to inhibit algal growth and their inhibition efficiency was tested as well. In this embodiment, one kind of toxic Cyanobacteria, Microcystis aeruginosa, is used for the inhibition test. Since chlorophyll-a content of algae is widely used as an indicator of the abundance of algae in a freshwater body, the chlorophyll-a content of Microcystis aeruginosa in the sample was detected by spectrometry.
First, four 0.5 ml portions of Microcystis aeruginosa solution were obtained and were labeled as sample I, II, III and IV, respectively, and 49.5 ml of Bold's medium was added to each sample. Next, chitosan, glucosamine, and the combination were added to sample II, III and IV, respectively, so that sample II contains 10 ppm chitosan, and sample III contains 10 ppm glucosamine, and sample IV contains 5 ppm chitosan and 5 ppm glucosamine. Sample I without any chitosan and glucosamine added was used as the control. After that, these four samples were cultured for 14 days. During that time, the Chlorophyll-a content of four samples were detected every 7 days according to the procedures mentioned below.
A portion of each sample was obtained and centrifuged at 10000 rpm at 20° C. for 15 mins, and then the supernatant was poured out. Next, four 10 ml portions of 95% (v/v) ethanol were added to sample I to IV and mixed with the residues. Next, the solution of each sample was water-bathed in 60° C. water for 30 mins to extract Chlorophyll-a. When being bathed in the water, the solution of each sample was shaken every ten minutes. After that, the solutions were centrifuged at 5000 G at 20° C. for 15 minutes and the supernatants were kept. Then, the absorbance at 665 nm of […] were detected. Finally, according to the “Standard Methods for the Examination Chlorophyll-a in Water-Ethanol Extraction” issued by National Institute of Environmental Analysis, Taiwan (NIEA E508.00B), the absorbance at 665 nm of samples I to IV were calibrated and the concentration of Chlorophyll-a content of each sample was calculated by the absorbance measured.
Basically, the whole process was the same as mentioned above except the concentration of chitosan and glucosamine in samples, and the Chlorophyll-a content was also detected. The concentration of glucosamine and chitosan contained in each sample and the Chlorophyll-a content detected are show in Table 2.

SMILES: N[C@H]1C(O)O[C@H](CO)[C@@H](O)[C@@H]1O (stereo partly drawn) [III, glucosamine]
- Chlorophyll-a Content (Embodiment I, 0th day, Microcystis aeruginosa in Bold's medium): 6.9 ppb
- Chlorophyll-a Content (Embodiment I, 7th day, control (sample I) 278 ppb): 33 ppb
- Chlorophyll-a Content (Embodiment I, 14th day, control (sample I) 2470 ppb): 554 ppb
- Chlorophyll-a Content (Embodiment II, 7th day, Blank 62 ppb, original content 9.7 ppb): 50 ppb
- Chlorophyll-a Content (Embodiment II, 14th day, Blank 418 ppb, original content 9.7 ppb): 124 ppb
- inhibition of the growth of algae (in words) (Microcystis aeruginosa, chlorophyll-a as indicator): could inhibit the growth of algae

Source: patent US20090280984A1, “Method of Inhibiting the Growth of Algae” (ITEQ CORPORATION, priority 2008, published 2009)
